The results in this text go back to ChEMBL document CHEMBL4359819, “Exploiting the 1-(4-fluorobenzyl)piperazine fragment for the development of novel tyrosinase inhibitors as anti-melanogenic agents: Design, synthesis, structural insights and biological profile” (Eur J Med Chem, 2019).

The source made the active and inactive calls. No cut-off for these calls is given here.

For one experiment, the target named is T1, Tyrosinase (Agaricus bisporus) (UniProt O42713).
T1 sequence (whole entry): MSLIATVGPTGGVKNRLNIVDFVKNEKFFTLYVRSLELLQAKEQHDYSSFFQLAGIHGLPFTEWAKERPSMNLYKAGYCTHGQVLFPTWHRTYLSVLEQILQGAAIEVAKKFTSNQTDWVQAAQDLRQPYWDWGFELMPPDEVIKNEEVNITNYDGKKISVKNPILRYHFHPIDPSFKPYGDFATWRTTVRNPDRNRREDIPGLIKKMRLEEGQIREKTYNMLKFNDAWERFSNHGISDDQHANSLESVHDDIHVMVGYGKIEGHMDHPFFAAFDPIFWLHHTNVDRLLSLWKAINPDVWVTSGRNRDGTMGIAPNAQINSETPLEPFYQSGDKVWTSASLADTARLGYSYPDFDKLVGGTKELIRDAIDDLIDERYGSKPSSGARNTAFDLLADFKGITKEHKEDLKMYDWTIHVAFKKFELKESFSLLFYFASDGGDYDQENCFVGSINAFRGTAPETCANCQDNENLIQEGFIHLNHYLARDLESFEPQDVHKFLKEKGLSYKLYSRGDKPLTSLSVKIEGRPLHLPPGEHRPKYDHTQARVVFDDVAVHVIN
As to the kind of experiment: Competitive inhibition of mushroom tyrosinase assessed as increase in Km for substrate at 0.48 to 1.92 uM using varying levels of L-DOPA as substrate by Lineweaver-Burk plot analysis.
Settings: not given
As for `O=C(c1ccc([N+](=O)[O-])cc1[N+](=O)[O-])N1CCN(Cc2ccc(F)cc2)CC1`, the inhibition entry is “Active”.

The target of another experiment is T2, Tyrosinase (Agaricus bisporus, UniProt O42713).
T2 sequence (O42713 whole entry): T1 sequence (whole entry)
As to the kind of experiment: Inhibition of mushroom tyrosinase assessed as reduction in dopachrome production using L-DOPA as substrate after 5 mins by spectrophotometric analysis.
Settings: not given
For `Cc1ccc(C(=O)N2CCN(Cc3ccc(F)cc3)CC2)c(C)c1`, the IC50 was determined as 3430 nM.
On the same count and under the same terms, as for `Nc1ccccc1C(=O)N1CCN(Cc2ccc(F)cc2)CC1`, the figure is 10900 nM.
For `O=C(c1ccc(Br)cc1Br)N1CCN(Cc2ccc(F)cc2)CC1`, the half-inhibitory concentration (IC50) was determined as 1050 nM.
Consider `O=C(c1ccc(C(F)(F)F)cc1C(F)(F)F)N1CCN(Cc2ccc(F)cc2)CC1`, for which the concentration for half-maximal inhibition (IC50) was 1630 nM.
Still for that read-out and setting: as for `O=C(c1ccccc1Br)N1CCN(Cc2ccc(F)cc2)CC1`, the figure is 2030 nM.
Same read-out and setting: as for `O=C(c1ccc(O)cc1O)N1CCN(Cc2ccc(F)cc2)CC1`, the figure is 1490 nM; as for `O=C(c1ccc(Cl)cc1Cl)N1CCN(Cc2ccc(F)cc2)CC1`, 790 nM.
Consider `Nc1ccc(C(=O)N2CCN(Cc3ccc(F)cc3)CC2)cc1`, for which the IC50 turned out to be 14700 nM.
Same read-out and setting: in the case of `O=C(c1ccc(Cl)cc1)N1CCN(Cc2ccc(F)cc2)CC1` it was 3510 nM; in that of `O=C(c1ccc(F)cc1F)N1CCN(Cc2ccc(F)cc2)CC1`, 1910 nM; in that of `COc1ccc(C(=O)N2CCN(Cc3ccc(F)cc3)CC2)c(OC)c1`, 1400 nM.
Same read-out and setting: as for `O=C(c1ccc([N+](=O)[O-])cc1[N+](=O)[O-])N1CCN(Cc2ccc(F)cc2)CC1`, the figure is 960 nM; as for `O=C(c1ccccc1Cl)N1CCN(Cc2ccc(F)cc2)CC1`, 3120 nM.
Still for that read-out and setting: in the case of `O=C(c1ccc(Br)cc1)N1CCN(Cc2ccc(F)cc2)CC1` it was 4610 nM; in that of `O=C(c1ccccc1[N+](=O)[O-])N1CCN(Cc2ccc(F)cc2)CC1`, 870 nM.
Consider `O=C(c1ccccc1C(F)(F)F)N1CCN(Cc2ccc(F)cc2)CC1`, for which the 50% inhibitory concentration (IC50) is 480 nM.
The same measure, in the same setting: as for `Nc1cccc(C(=O)N2CCN(Cc3ccc(F)cc3)CC2)c1`, the figure is 3810 nM; as for `O=C(c1cccc([N+](=O)[O-])c1)N1CCN(Cc2ccc(F)cc2)CC1`, 3600 nM; as for `O=C(c1ccc(C(F)(F)F)cc1)N1CCN(Cc2ccc(F)cc2)CC1`, 3380 nM.
Still for that read-out and setting: as for `O=C(c1ccc([N+](=O)[O-])cc1)N1CCN(Cc2ccc(F)cc2)CC1`, the figure is 2050 nM.
Still for that read-out and setting: as for `O=C(c1cccc(Br)c1)N1CCN(Cc2ccc(F)cc2)CC1`, the figure is 2400 nM.
As to `O=C(c1cccc(C(F)(F)F)c1)N1CCN(Cc2ccc(F)cc2)CC1`, the IC50 was found to be 8430 nM.
The same measure, in the same setting: in the case of `Nc1ccc(C(=O)N2CCN(Cc3ccc(F)cc3)CC2)c(N)c1` it was 3670 nM; in that of `O=C(c1cccc(Cl)c1)N1CCN(Cc2ccc(F)cc2)CC1`, 5300 nM.

For another experiment, the system named is B16-F10. As to the kind of experiment: Inhibition of alpha-MSH-stimulated melanogenesis in mouse B16F10 cells assessed as melanin content at 10 uM measured after 48 hrs relative to control. The note with it: B16-F10, 48 h. It counts as functional.
With `O=C(c1ccc([N+](=O)[O-])cc1[N+](=O)[O-])N1CCN(Cc2ccc(F)cc2)CC1`, the inhibition at 10 µM was 22.8%.

The next experiment concerns the target T1, Tyrosinase (Agaricus bisporus). As to the kind of experiment: Potency index, ratio of kojic acid IC50 to compound IC50 for inhibition of mushroom tyrosinase using L-DOPA as substrate.
Settings: not given
As to `O=C(c1ccc([N+](=O)[O-])cc1[N+](=O)[O-])N1CCN(Cc2ccc(F)cc2)CC1`, the Ratio IC50 stood at 20.

The next experiment has the same target. As to the kind of experiment: Competitive inhibition of mushroom tyrosinase assessed as Vmax for substrate at 0.48 to 1.92 uM using varying levels of L-DOPA as substrate by Lineweaver-Burk plot analysis.
Settings: not given
In the case of `O=C(c1ccc([N+](=O)[O-])cc1[N+](=O)[O-])N1CCN(Cc2ccc(F)cc2)CC1`, the inhibition result was “Active”.
